Measured values taken from the supplement of paper PMC10307832.

What was measured:
Assay in all cases: relative viability (nuclei count vs DMSO), 5 days (fraction); higher = more cells survive
[1] = compound: CC1=CC(=CC=C1)NC2=NC(=CS2)C3=CC=NC=C3 + Cc1cc(Nc2cc(N3CCN(C)CC3)nc(Sc3ccc(NC(=O)C4CC4)cc3)n2)n[nH]1 [Tozasertib] (partner 0.1 µM)
Procedure, shortened: (§1)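 Relative viability is defined as nuclei in treated wells over nuclei in vehicle wells. Duplicate plates were run and medians reported. Lung cancer cell lines in 1536-well plates were dosed by pin tool one day after seeding, with one drug or with a fixed anchor-drug dose plus five library-drug doses (not always all listed) in √10 steps, and nuclei were counted after 5 days.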

Masitinib + Dasatinib = compound: Cc1ccc(NC(=O)c2ccc(CN3CCN(C)CC3)cc2)cc1Nc1nc(-c2cccnc2)cs1 [Masitinib] + Cc1nc(Nc2ncc(C(=O)Nc3c(C)cccc3Cl)s2)cc(N2CCN(CCO)CC2)n1 [Dasatinib] (partner 0.075 µM)
Procedure, shortened: as §1

Masitinib + OSI-027 = compound: Cc1ccc(NC(=O)c2ccc(CN3CCN(C)CC3)cc2)cc1Nc1nc(-c2cccnc2)cs1 [Masitinib] + COc1cccc2cc(-c3nc([C@H]4CC[C@H](C(=O)O)CC4)n4ncnc(N)c34)[nH]c12 [OSI-027] (partner 0.5 µM)
Procedure, shortened: as §1

Masitinib + Pemetrexed = compound: Cc1ccc(NC(=O)c2ccc(CN3CCN(C)CC3)cc2)cc1Nc1nc(-c2cccnc2)cs1 [Masitinib] + Nc1nc2[nH]cc(CCc3ccc(C(=O)N[C@@H](CCC(=O)O)C(=O)O)cc3)c2c(=O)[nH]1 [Pemetrexed] (partner 0.2 µM)
Procedure, shortened: as §1

UMC-11
relative viability ([1]; first compound 0.08 µM): 0.219 | relative viability ([1]; first compound 0.253 µM): 0.206 | relative viability ([1]; first compound 0.8 µM): 0.193 | relative viability ([1]; first compound 2.53 µM): 0.185 | relative viability ([1]; first compound 8 µM): 0.224 | relative viability (Masitinib + Dasatinib; first compound 0.03162 µM): 0.35 | relative viability (Masitinib + Dasatinib; first compound 0.1 µM): 0.535 | relative viability (Masitinib + Dasatinib; first compound 0.3162 µM): 0.556 | relative viability (Masitinib + Dasatinib; first compound 1 µM): 0.509 | relative viability (Masitinib + OSI-027; first compound 0.03162 µM): 0.46 | relative viability (Masitinib + OSI-027; first compound 0.1 µM): 0.487 | relative viability (Masitinib + OSI-027; first compound 0.3162 µM): 0.491 | relative viability (Masitinib + OSI-027; first compound 1 µM): 0.46 | relative viability (Masitinib + Pemetrexed; first compound 0.01 µM): 0.755 | relative viability (Masitinib + Pemetrexed; first compound 0.03162 µM): 0.751 | relative viability (Masitinib + Pemetrexed; first compound 0.1 µM): 0.783 | relative viability (Masitinib + Pemetrexed; first compound 0.3162 µM): 0.813 | relative viability (Masitinib + Pemetrexed; first compound 1 µM): 0.882
